For test [1], the target named is Uric acid-xanthine permease (Emericella nidulans (strain FGSC A4 / ATCC 38163 / CBS 112.46 / NRRL194 / M139) (Aspergillus nidulans)) (UniProt Q07307). The test is described as follows: Inhibition of fungal UapA expressed in Aspergillus nidulans assessed as reduction in UapA-mediated [8-3H]-xanthine accumulation at 0.5 mM. The settings on record: Fungi.
The subject of test [2] is Fungi. The test can be described thus: Inhibition of fungal FcyB expressed in Aspergillus nidulans assessed as reduction in FcyB-mediated at 0.5 mM.
Test [3] has as its system Fungi. The test can be described thus: Inhibition of fungal FcyB expressed in Aspergillus nidulans assessed as FcyB-mediated [2,8-3H]-adenine accumulation rate at 500 uM relative to untreated control. On the set-up: scale not given: the % may be the effect or the level left.
The nature of test [4]: Inhibition of fungal FcyB expressed in Aspergillus nidulans assessed as reduction in FcyB-mediated [2,8-3H]-adenine accumulation. Also on record: species or system Fungi.
The target in test [5] is T1, Uncharacterized protein (Emericella nidulans (strain FGSC A4 / ATCC 38163 / CBS 112.46 / NRRL194 / M139) (Aspergillus nidulans)) (UniProt G5EB00).
T1 sequence (whole entry): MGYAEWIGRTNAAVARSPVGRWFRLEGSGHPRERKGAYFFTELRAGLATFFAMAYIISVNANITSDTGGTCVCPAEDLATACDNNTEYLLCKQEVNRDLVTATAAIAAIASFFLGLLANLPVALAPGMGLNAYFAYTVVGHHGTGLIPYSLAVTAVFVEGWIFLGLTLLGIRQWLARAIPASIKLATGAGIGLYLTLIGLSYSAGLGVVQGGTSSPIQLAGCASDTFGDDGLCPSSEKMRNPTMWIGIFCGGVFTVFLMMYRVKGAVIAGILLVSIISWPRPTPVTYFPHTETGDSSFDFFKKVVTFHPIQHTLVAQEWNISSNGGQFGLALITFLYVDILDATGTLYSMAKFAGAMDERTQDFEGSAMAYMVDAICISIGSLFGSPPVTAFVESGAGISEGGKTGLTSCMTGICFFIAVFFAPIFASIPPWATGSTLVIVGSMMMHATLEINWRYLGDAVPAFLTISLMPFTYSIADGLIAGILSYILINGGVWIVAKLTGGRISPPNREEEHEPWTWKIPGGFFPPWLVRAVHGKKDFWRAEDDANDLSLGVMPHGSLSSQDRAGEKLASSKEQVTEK
The test can be described thus: Inhibition of fungal AzgA expressed in Aspergillus nidulans assessed as reduction in AzgA-mediated [2,8-3H]-adenine accumulation at 0.5 mM. The settings on record: Fungi.

Test [6] concerns the target T2, Uncharacterized protein (Emericella nidulans (strain FGSC A4 / ATCC 38163 / CBS 112.46 / NRRL194 / M139) (Aspergillus nidulans), UniProt G5EB00).
T2 sequence (G5EB00 whole entry): T1 sequence (whole entry)
The test is described as follows: Inhibition of fungal AzgA expressed in Aspergillus nidulans assessed as reduction in AzgA-mediated [2,8-3H]-adenine accumulation. Also on record: species or system Fungi.

pKi: −log10 of the molar value. Activity calls are given as the source filed them. The rule behind the calls is not given here. Where only a bound is given, the exact number is not on record here.

Sequence of Uric acid-xanthine permease (Emericella nidulans (strain FGSC A4 / ATCC 38163 / CBS 112.46 / NRRL194 / M139) (Aspergillus nidulans)) (Q07307 whole entry, looked up): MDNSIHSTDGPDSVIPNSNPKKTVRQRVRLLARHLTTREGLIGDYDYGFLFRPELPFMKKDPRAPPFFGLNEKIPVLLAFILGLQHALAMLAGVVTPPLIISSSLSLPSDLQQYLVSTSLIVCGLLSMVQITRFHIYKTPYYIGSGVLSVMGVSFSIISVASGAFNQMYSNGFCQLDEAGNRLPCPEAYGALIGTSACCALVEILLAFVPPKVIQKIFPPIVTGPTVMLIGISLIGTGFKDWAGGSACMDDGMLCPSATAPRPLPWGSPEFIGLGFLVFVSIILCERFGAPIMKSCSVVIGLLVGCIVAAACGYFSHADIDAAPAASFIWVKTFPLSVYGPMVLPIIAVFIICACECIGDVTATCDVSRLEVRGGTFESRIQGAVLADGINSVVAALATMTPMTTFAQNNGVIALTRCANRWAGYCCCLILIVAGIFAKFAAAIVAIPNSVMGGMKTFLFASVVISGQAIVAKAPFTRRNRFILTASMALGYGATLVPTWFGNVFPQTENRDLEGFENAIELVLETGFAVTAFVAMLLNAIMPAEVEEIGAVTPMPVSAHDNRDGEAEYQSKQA

Regarding `Nc1ccnc2c1nc(O)n2Cc1ccccc1`, the inhibition result in test [1] and in test [2] was “inactive” throughout.
For `COc1ccc(OC)c(-c2nc3c(NCc4ccccc4)nccc3[nH]2)c1`, the Activity in test [3] was below 10%. In test [1], the inhibition entry was “inactive”. For the same compound, the negative logarithm of the Ki (pKi) (usually −log10 of the Ki, conventionally taken in molar units) in test [4] is 4.38. Moreover, the inhibition entry in test [5] was “Active”.
As to `O=[N+]([O-])c1ccc(-c2nc3c(NCc4ccccc4)nccc3[nH]2)cc1`, the inhibition result in test [1] was “inactive”.
As for `Nc1[nH]cnc2ncnc1-2` [ADENINE], in test [4], the pKi is 5.15.
Consider `CN1CCN(c2nccc3[nH]c(-c4ccc([N+](=O)[O-])cc4)nc23)CC1`, for which the inhibition result in test [1] is “inactive”. Moreover, the negative logarithm of the Ki (pKi) in test [4] is 3.97. Moreover, in test [5], the inhibition result was “Active”.
For `CN1CCN(c2nccc3[nH]c(-c4ccncc4)nc23)CC1`, the inhibition result in test [1] is “inactive”.
As to `Nc1ccnc2c1nc(-c1ccncc1)n2Cc1ccccc1`, the inhibition entry in test [1] and in test [2] was “inactive” each time.
For the compound `O=c1[nH]cnc2nc[nH]c12` [HYPOXANTHINE], in test [4], the pKi is 4.96.
As for `CN1CCN(c2nccc3[nH]c(-c4ccccc4O)nc23)CC1`, the Activity in test [3] was below 10%. Moreover, the inhibition entry in test [1] is “inactive”. The pKi in test [4] is 4.31.
With `CN1CCN(c2nccc3c2ncn3C2CCCC2)CC1`, in test [4], the pKi was 4.42.
With `CN1CCN(c2nccc3c2nc(-c2ccncc2)n3Cc2ccncc2)CC1`, the inhibition result in test [1] is “inactive”.
Regarding `c1ccc(CNc2nccc3[nH]c(-c4ccncc4)nc23)cc1`, the Activity in test [3] was below 10%. The inhibition entry in test [1] is “inactive”. In addition, the pKi in test [4] was 4.14. Also, the inhibition entry in test [5] was “Active”.
As for `Oc1ccccc1-c1nc2c(NCc3ccccc3)nccc2[nH]1`, in test [3], the Activity was below 10%. Besides, in test [1], the inhibition entry was “inactive”. For the same compound, the negative logarithm of the Ki (pKi) in test [6] was 4.24; in test [4], 4.09. Further, in test [5], the inhibition result was “Active”.
As for `COc1ccc(OC)c(-c2nc3c(N)ccnc3n2Cc2ccccc2)c1`, the inhibition entry in test [1] and in test [2] was “inactive” throughout.
Consider `Nc1ccnc2c1nc(-c1ccc([N+](=O)[O-])cc1)n2Cc1ccccc1`, for which the inhibition entry in test [1] and in test [2] was “inactive” in each case.
In the case of `Nc1ccnc2c1nc(S)n2Cc1ccccc1`, the inhibition entry in test [1] and in test [2] was “inactive” throughout.
For `CN1CCN(c2nccc3[nH]c(O)nc23)CC1`, the Activity in test [3] is below 10%. Besides, the inhibition entry in test [1] is “inactive”. Besides, in test [4], the negative-log Ki (pKi) was 4.72.
`CN1CCN(c2nccc3c2nc(-c2ccccc2O)n3Cc2ccccc2O)CC1`: the inhibition result in test [1] and in test [2] was “inactive” each time.
Turning to `Sc1nc2c(NCc3ccccc3)nccc2[nH]1`, the inhibition result in test [1] is “inactive”.
For `COc1ccc(OC)c(-c2nc3c(N4CCN(C)CC4)nccc3[nH]2)c1`, the Activity in test [3] was below 10%. The inhibition entry in test [1] was “inactive”. Also, the pKi in test [4] was 4.00.
Regarding `Nc1ccnc2c1nc(-c1ccccc1O)n2Cc1ccccc1`, the inhibition result in test [1] and in test [2] was “inactive” throughout.
For the compound `CN1CCN(c2nccc3[nH]c(S)nc23)CC1`, the inhibition entry in test [1] is “inactive”.
For `CC(C)n1cnc2c(NCc3ccccc3)nccc21`, in test [4], the negative-log Ki (pKi) is 5.30.
Regarding `Oc1nc2c(NCc3ccccc3)nccc2[nH]1`, in test [1], the inhibition result was “inactive”. Further, the pKi in test [4] was 4.13.

(Values after ChEMBL document CHEMBL4152333, “Structure-activity relationships in fungal nucleobases transporters as dissected by the inhibitory effects of novel purine analogues” (Eur J Med Chem, 2018).)
